Assay [1] has as its target T1, glutathione-S-transferase (GST) tagged LXRalpha LBD (ligand binding domain) (Homo sapiens, UniProt Q13133).
T1 construct: purchased Invitrogen pv4655
T1 sequence (Q13133 209-447 limits assumed): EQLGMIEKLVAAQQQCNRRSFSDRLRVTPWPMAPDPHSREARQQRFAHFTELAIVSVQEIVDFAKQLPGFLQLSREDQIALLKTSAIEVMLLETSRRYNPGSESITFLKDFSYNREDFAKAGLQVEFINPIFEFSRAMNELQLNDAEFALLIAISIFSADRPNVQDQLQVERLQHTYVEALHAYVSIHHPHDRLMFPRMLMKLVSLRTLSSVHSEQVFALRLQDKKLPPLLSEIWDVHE
Kind of assay: LanthaScreen TR-FRET Liver X Receptor Coactivator Assay, LXR alpha-LBD. Type of assay: biochemical. The note with it: for Emax: efficacy in relation to reference dual agonist T1317, read-out: LXR alpha activity at max dose (%) (Emax); for EC50: read-out: LXR alpha IP. Summed up:
(§1)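 Compound + LBD (alpha or beta); add fluorescein coactivator peptide/Tb anti-GST Ab mix; incubate RT; read TR-FRET.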

Assay [2] addresses T2, glutathione-S-transferase (GST) tagged LXRbeta LBD (ligand binding domain) (Homo sapiens, UniProt P55055).
T2 construct: purchased Invitrogen pv4658.pps
T2 sequence (P55055 222-460 limits assumed): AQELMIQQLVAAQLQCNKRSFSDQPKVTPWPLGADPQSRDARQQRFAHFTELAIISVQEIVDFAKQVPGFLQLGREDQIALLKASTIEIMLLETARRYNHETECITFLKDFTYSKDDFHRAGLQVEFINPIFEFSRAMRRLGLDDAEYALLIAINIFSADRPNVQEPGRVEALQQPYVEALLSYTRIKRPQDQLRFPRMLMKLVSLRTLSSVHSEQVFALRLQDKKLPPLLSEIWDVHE
Kind of assay: LanthaScreen TR-FRET Liver X Receptor Coactivator Assay, LXR beta-LBD. To be noted: for Emax: efficacy in relation to reference dual agonist T1317, read-out: LXR beta activity at max dose (%) (Emax); for EC50: potency (Inflection Point) of co-activator recruitment, TR-FRET, read-out: LXR beta IP. Type of assay: biochemical. Put shortly: as §1

The mark [3] stands for this setting: potency (Inflection Point) of co-activator recruitment, TR-FRET.

As a reminder, the Emax is the greatest response seen or fitted, relative to the assay's reference. `CN(C)C(=O)c1ccc(-c2cnc(N3CCN(C(=O)C4(c5ccccc5)CC4)CC3)c(C#N)c2)cc1Cl` [Example 2-17, 2-chloro-4-(5-cyano-6-{4-[(1-phenylcyclopropyl)carbonyl]piperazin-1-yl}pyridin-3-yl)-N,N-dimethylbenzamide]: the Emax in assay [1] was 27%; in assay [2], 95%. The figures for the EC50 in assay [1] (setting [3]) and in assay [2] were 4.36 µM and 0.027 µM, respectively.

As to `CC(C)(C)OC(=O)N1CCN(c2ncc(-c3ccc(C(=O)N4CCC(O)CC4)c(Cl)c3)cc2C#N)CC1` [Example 5-17, tert-butyl 4-(5-{3-chloro-4-[(4-hydroxypiperidin-1-yl)carbonyl]phenyl}-3-cyanopyridin-2-yl)piperazine-1-carboxylate], the Emax in assay [1] was found to be 17%. The “LXR alpha IP (nM)” value in assay [1] (setting [3]) is given as “No IP”. In assay [2], the Emax turned out to be 47% and the EC50 was 0.415 µM.

In the case of `CN(C)C(=O)c1ccc(-c2cnc(N3CCN(S(=O)(=O)c4ccccc4C(F)(F)F)CC3)c(C#N)c2)cc1Cl` [Example 1-13, 2-chloro-4-[5-cyano-6-(4-{[2-(trifluoromethyl)phenyl]sulfonyl}piperazin-1-yl)pyridin-3-yl]-N,N-dimethylbenzamide], the results for the maximal response (Emax) in assay [1] and in assay [2] were 60% and 127%, respectively. The EC50 in assay [1] (setting [3]) came to 1 µM; in assay [2], 0.011 µM.

For the compound `CN(C)C(=O)c1ccc(-c2cnc(N3CCN(C(=O)[C@@](O)(c4ccccc4)C(F)(F)F)CC3)c(C#N)c2)cc1Cl` [Example 2-31, 2-chloro-4-(5-cyano-6-{4-[(2S)-3,3,3-trifluoro-2-hydroxy-2-phenylpropanoyl]piperazin-1-yl}pyridin-3-yl)-N,N-dimethylbenzamide], the figures for the Emax in assay [1] and in assay [2] were 12% and 68%, respectively. The EC50 came to 7.29 µM in assay [1] (setting [3]) and 0.307 µM in assay [2].

For `CN(C)C(=O)c1ccc(-c2cnc(N3CCN(C(=O)C4(c5ccccc5)CCCC4)CC3)c(C#N)c2)cc1Cl` [Example 2-26, 2-chloro-4-(5-cyano-6-{4-[(1-phenylcyclopentyl)carbonyl]piperazin-1-yl}pyridin-3-yl)-N,N-dimethylbenzamide], the Emax in assay [1] was 25%; in assay [2] it was 84%. Moreover, the figures for the EC50 in assay [1] (setting [3]) and in assay [2] were 1.99 µM and 0.043 µM, respectively.

For `CN(C)NC(=O)c1ccc(-c2cnc(N3CCN(C(=O)OC(C)(C)C)CC3)c(C#N)c2)cc1Cl` [Example 5-6, tert-butyl 4-(5-{3-chloro-4-[(2,2-dimethylhydrazino)carbonyl]phenyl}-3-cyanopyridin-2-yl)piperazine-1-carboxylate], the maximum response (Emax) in assay [1] was determined as 43%; in assay [2] it was 77%. Besides, the results for the EC50 in assay [1] (setting [3]) and in assay [2] were 8.78 µM and 0.435 µM, respectively.

`CN(C)C(=O)c1ccc(-c2cnc(N3C4CCC3C3CCC4N3C(=O)OC(C)(C)C)c(C#N)c2)cc1Cl` [Example 8-11, tert-butyl 10-{5-[3-chloro-4-(dimethylcarbamoyl)phenyl]-3-cyanopyridin-2-yl}-9,10-diazatricyclo[4.2.1.1~2,5~]decane-9-carboxylate]: the maximum response (Emax) was determined as 41% in assay [1] and 57% in assay [2]. In addition, the EC50 in assay [1] (setting [3]) came out at 10.9 µM; in assay [2] it was 1.05 µM.

In the case of `CC(C)(C)OC(=O)N1CCN(c2ncc(-c3ccc(C(=O)N4CCCCC4)c(Cl)c3)cc2C#N)CC1` [Example 5-11, tert-butyl 4-{5-[3-chloro-4-(piperidin-1-ylcarbonyl)phenyl]-3-cyanopyridin-2-yl}piperazine-1-carboxylate], the values for the maximum response (Emax) in assay [1] and in assay [2] were 89% and 59%, respectively. The EC50 worked out at 11.7 µM in assay [1] (setting [3]) and 0.3 µM in assay [2].

Take `CN(C)C(=O)c1ccc(-c2cnc(N3CCN(C(=O)OC(C)(C)C)CC3)c(C#N)c2)cc1C1CC1` [Example 9-4, tert-butyl 4-{3-cyano-5-[3-cyclopropyl-4-(dimethylcarbamoyl)phenyl]pyridin-2-yl}piperazine-1-carboxylate]: the Emax in assay [1] was 39%; in assay [2] it was 68%. Moreover, the EC50 in assay [1] (setting [3]) is 4.63 µM; in assay [2], 0.676 µM.

As for `COc1ccc(COC(=O)N2CCN(c3ncc(-c4ccc(C(=O)N(C)C)c(Cl)c4)cc3C#N)CC2)cc1` [Example 3-8, 4-methoxybenzyl 4-{5-[3-chloro-4-(dimethylcarbamoyl)phenyl]-3-cyanopyridin-2-yl}piperazine-1-carboxylate], the Emax in assay [1] and in assay [2] was 65% throughout. Besides, the EC50 worked out at 24.6 µM in assay [1] (setting [3]) and 0.21 µM in assay [2].

For the compound `CN(C)C(=O)c1ccc(-c2cnc(N3CCN(C(=O)Cc4c[nH]c5ccccc45)CC3)c(C#N)c2)cc1Cl` [Example 2-22, 2-chloro-4-{5-cyano-6-[4-(1H-indol-3-ylacetyl)piperazin-1-yl]pyridin-3-yl}-N,N-dimethylbenzamide], the maximal response (Emax) in assay [1] was 54%; in assay [2], 83%. The EC50 in assay [1] (setting [3]) is 30 µM; in assay [2], 0.186 µM.

`COc1ccc2nc(CCN(C)C(=O)c3ccc(-c4cnc(N5CCN(C(=O)OC(C)(C)C)CC5)c(C#N)c4)cc3Cl)[nH]c2c1` [Example 5-33, tert-butyl 4-[5-(3-chloro-4-{[2-(6-methoxy-1H-benzimidazol-2-yl)ethyl](methyl)carbamoyl}phenyl)-3-cyanopyridin-2-yl]piperazine-1-carboxylate]: the maximal response (Emax) in assay [1] was 52%; in assay [2] it was 78%. Besides, the results for the EC50 in assay [1] (setting [3]) and in assay [2] were 4.83 µM and 0.703 µM, respectively.

Regarding `CN(CC(O)CO)C(=O)c1ccc(-c2cnc(N3CCN(C(=O)OC(C)(C)C)CC3)c(C#N)c2)cc1Cl` (stereo not shown) [Example 5-18, tert-butyl 4-(5-{3-chloro-4-[(2,3-dihydroxypropyl) (methyl)carbamoyl]phenyl}-3-cyanopyridin-2-yl)piperazine-1-carboxylate], the Emax stood at 40% in assay [1] and 70% in assay [2]. Besides, the EC50 came to 8.6 µM in assay [1] (setting [3]) and 0.301 µM in assay [2].

Regarding `CN(C)C(=O)c1ccc(-c2cnc(N3CCN(C(=O)C(C)(C)C)CC3)c(C#N)c2)cc1Cl` [Example 2-3, 2-chloro-4-{5-cyano-6-[4-(2,2-dimethylpropanoyl)piperazin-1-yl]pyridin-3-yl}-N,N-dimethylbenzamide], the values for the maximal response (Emax) in assay [1] and in assay [2] were 67% and 105%, respectively. Further, the EC50 in assay [1] (setting [3]) was 4.81 µM; in assay [2], 0.056 µM.

With `CN(C)C(=O)c1ccc(-c2ccc(N3CC4CCC3CN4C(=O)OC(C)(C)C)c(Cl)c2)cc1Cl` (stereo not shown) [Example 4-3, tert-butyl 5-[3,3′-dichloro-4′-(dimethylcarbamoyl)biphenyl-4-yl]-2,5-diazabicyclo[2.2.2]octane-2-carboxylate], the Emax in assay [1] amounted to 79%; in assay [2], 87%. Besides, the EC50 in assay [1] (setting [3]) is 1.57 µM; in assay [2], 0.039 µM.

`CN(C)C(=O)c1ccc(-c2cnc(N3CCN(C(=O)OCc4ccccc4)CC3)c(C#N)c2)cc1Cl` [Example 3-14, benzyl 4-{5-[3-chloro-4-(dimethylcarbamoyl)phenyl]-3-cyanopyridin-2-yl}piperazine-1-carboxylate]: the Emax in assay [1] was found to be 26%; in assay [2], 74%. Besides, the EC50 in assay [1] (setting [3]) turned out to be 4.83 µM; in assay [2], 0.057 µM.

Source of the values: US10239849B2 (Merck Sharp & Dohme Corp., priority 2015, dated 2019).
